Measured values taken from patent US7175991B2, “Method of measuring binding site on plasma protein of plasma protein-binding drug and method of measuring plasma protein mutation” (Nihon Medi-Physics Co., Ltd., priority 2002, dated 2007).
Like-named read-outs stand apart in the source and are kept apart here.

Assays:
plasma protein = conditions: used in the concentration of a diagnostic agent; cited from earlier work
HSA Site I [1] = target: T1, HSA Site I (Homo sapiens, UniProt P02768); experiment: Four-nuclide simultaneous measurement, human serum 2 (AGP variant): displacement of ^99mTcO4^-
From the text: (§1) In addition, the possibility of monitoring the protein binding displacement effect of a drug in the serum was examined.

HSA Site I [2] = target: T1, HSA Site I; experiment: Four-nuclide simultaneous measurement, human serum 1: displacement of ^99mTcO4^-; conditions: human serum 1, four nuclides
HSA Site I [3] = target: T1, HSA Site I; experiment: Table 6, two-nuclide simultaneous measure, human pooled serum: column headed ^99mTcO4^-; conditions: physiological saline instead of displacement drug
HSA Site I [4] = target: T1, HSA Site I; conditions: 400 μM, pH 7.4
HSA Site II = HSA Site II (Homo sapiens, UniProt P02768); conditions: for Change ratio (time) of ^14C-DZP free drug ratio / Free drug ratio (%) of ^14C-DZP: human, 400 μM, pH 7.4
AGP Site A and B [5] = conditions: for Change ratio (time) of ^3H-PPL free drug ratio / Free drug ratio (%) of ^3H-PPL: human, 400 μM, pH 7.4
HSA Site II and AGP [6] = conditions: human, 400 μM, pH 7.4
AGP Site A and B [7] = experiment: Four-nuclide simultaneous measurement, human serum 2 (AGP variant): displacement of ^3H-PPL
From the text: as §1

HSA Site II and AGP [8] = experiment: Four-nuclide simultaneous measurement, human serum 2 (AGP variant): displacement of ^125I-IMP
From the text: as §1

HSA Site I [9] = target: T1, HSA Site I; conditions: human serum 1; added drug 400 μM
HSA Site II and AGP [10] = experiment: Four-nuclide simultaneous measurement, human serum 1: displacement of ^125I-IMP; conditions: human serum 1, four nuclides
HSA Site II and AGP [11] = experiment: Table 6, two-nuclide simultaneous measure, human pooled serum: column headed ^125I-IMP; conditions: physiological saline instead of displacement drug
[12] = physiological saline control (Table 8)
[13] = physiological saline instead of drug (Table 7)
[14] = physiological saline instead of displacement drug (Table 5)
[15] = physiological saline instead of drug (Table 4)

HSA Site II, sequence (P02768 25-609): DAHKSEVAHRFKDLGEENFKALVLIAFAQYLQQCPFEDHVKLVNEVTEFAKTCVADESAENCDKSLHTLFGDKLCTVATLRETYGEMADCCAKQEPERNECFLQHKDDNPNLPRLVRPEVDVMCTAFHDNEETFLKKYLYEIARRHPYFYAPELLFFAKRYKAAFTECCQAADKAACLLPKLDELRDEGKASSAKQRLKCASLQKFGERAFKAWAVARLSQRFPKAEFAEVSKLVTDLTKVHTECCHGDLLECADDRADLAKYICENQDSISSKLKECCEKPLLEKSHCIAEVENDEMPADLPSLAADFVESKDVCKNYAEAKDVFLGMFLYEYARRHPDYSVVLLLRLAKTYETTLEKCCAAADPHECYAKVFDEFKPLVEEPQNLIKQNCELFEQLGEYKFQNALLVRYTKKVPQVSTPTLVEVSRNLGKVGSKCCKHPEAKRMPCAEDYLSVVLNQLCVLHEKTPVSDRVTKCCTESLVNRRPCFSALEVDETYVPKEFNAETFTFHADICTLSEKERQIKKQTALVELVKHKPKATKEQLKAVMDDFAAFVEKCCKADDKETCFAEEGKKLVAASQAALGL
T1 sequence (P02768 25-609): as above

O=C([O-])CN=C([O-])CN=C([O-])CN=C([O-])C[S-].[O-2].[Tc+4] [^99mTc-MAG3, 99m-technetium labeled mercaptoacetylglycylglycylglycine]
Binding to plasma protein (plasma protein): about 90%

[O]=[99Tc](=[O])(=[O])[O-] [^99 mTcO4^-, Pertechnetium acid]
Free drug ratio of control (%), ^99mTcO4^- (HSA Site I [1]; [12]): 21.08% | Free drug ratio of control (%), ^99mTcO4^- (HSA Site I [1]; [13]): 21.08% | Free drug ratio of control (%), ^99mTcO4^- (HSA Site I [2]; [14]): 21.07% | Free drug ratio of control (%), ^99mTcO4^- (HSA Site I [2]; [15]): 21.07% | Free drug ratio of control (%), ^99mTcO4^- (HSA Site I [3]): 0.90%

N[C@@H](Cc1c[nH]c2ccccc12)C(=O)O [Trp, tryptophan]
Change ratio (time) of ^99mTcO4^- free drug ratio (HSA Site I [4]): 1.08 time | Change ratio (time) of ^14C-DZP free drug ratio (HSA Site II): 2.25 time | Change ratio (time) of ^3H-PPL free drug ratio (AGP Site A and B [5]): 1.01 time | Change ratio (time) of ^125I-IMP free drug ratio (HSA Site II and AGP [6]): 0.94 time

CCCCC1C(=O)NC(=O)N(C2CCCCC2)C1=O (stereo not shown) [BCL, bucolome]
Displacement effect on ^99mTcO4^-, in words (HSA Site I [1]): significant displacement effect | Effect on binding of ^3H-PPL, in words (AGP Site A and B [7]; human serum 2 (AGP variant)): increased | Effect on binding of ^125I-IMP, in words (HSA Site II and AGP [8]): increased | Displacement effect on ^14C-WRF, in words (HSA Site I [9]): significant displacement effect | Displacement effect on drug with affinity to site I of HSA (^99mTcO4^-), in words (HSA Site I [2]): significant displacement effect

CC[C@H]1OC(=O)[C@H](C)[C@@H](O[C@H]2C[C@@](C)(OC)[C@@H](O)[C@H](C)O2)[C@H](C)[C@@H](O[C@@H]2O[C@H](C)C[C@H](N(C)C)[C@H]2O)[C@](C)(O)C[C@@H](C)C(=O)[C@H](C)[C@@H](O)[C@]1(C)O [ETM, erythromycin]
Change ratio (time) of ^99mTcO4^- free drug ratio (HSA Site I [4]): 0.99 time | Free drug ratio (%) of ^99mTcO4^- (HSA Site I [4]): 0.88% | Change ratio (time) of ^14C-DZP free drug ratio (HSA Site II): 1.04 time | Free drug ratio (%) of ^14C-DZP (HSA Site II): 2.67% | Effect on free drug with affinity to AGP, in words (AGP Site A and B [5]): effective displacement drug | Change ratio (time) of ^3H-PPL free drug ratio (AGP Site A and B [5]): 1.93 time | Free drug ratio (%) of ^3H-PPL (AGP Site A and B [5]): 23.79% | Change ratio (time) of ^125I-IMP free drug ratio (HSA Site II and AGP [6]): 1.61 time | Free drug ratio (%) of ^125I-IMP (HSA Site II and AGP [6]): 54.78%

CC(C)NC(C)Cc1ccc([125I])cc1 (stereo not shown) [^125I-IMP]
Free drug ratio of control (%), ^125I-IMP (HSA Site II and AGP [8]; [12]): 27.23% | Free drug ratio of control (%), ^125I-IMP (HSA Site II and AGP [8]; [13]): 27.23% | Free drug ratio of control (%), ^125I-IMP (HSA Site II and AGP [10]; [14]): 23.40% | Free drug ratio of control (%), ^125I-IMP (HSA Site II and AGP [10]; [15]): 23.40% | Free drug ratio of control (%), ^125I-IMP (HSA Site II and AGP [11]): 33.98%

CC(=O)N[C@@H](Cc1c[nH]c2ccccc12)C(=O)O [NAT, N-acetyltryptophan]
Change ratio (time) of ^99mTcO4^- free drug ratio (HSA Site I [4]): 1.07 time | Free drug ratio (%) of ^99mTcO4^- (HSA Site I [4]): 0.97% | Effect on free drug with affinity to site II of HSA, in words (HSA Site II): effective displacement drug | Change ratio (time) of ^14C-DZP free drug ratio (HSA Site II): 1.21 time | Free drug ratio (%) of ^14C-DZP (HSA Site II): 3.08% | Effect on free drug with affinity to AGP, in words (AGP Site A and B [5]): effect to reduce the concentration to some extent | Change ratio (time) of ^3H-PPL free drug ratio (AGP Site A and B [5]): 0.94 time | Free drug ratio (%) of ^3H-PPL (AGP Site A and B [5]): 11.54% | Change ratio (time) of ^125I-IMP free drug ratio (HSA Site II and AGP [6]): 1.01 time | Free drug ratio (%) of ^125I-IMP (HSA Site II and AGP [6]): 34.19%

CC(C)Cc1ccc(C(C)C(=O)O)cc1 (stereo not shown) [IPF, ibuprofen]
Effect on binding of ^3H-PPL, in words (AGP Site A and B [7]): increased
